For assay [1], the system named is HepG2. The experiment in a line: Cytotoxicity against human HepG2 cells assessed as reduction in cell viability after 48 hrs by MTT assay. The class given is functional, cell-based. The following applies: HepG2, 48 h.
For assay [2], the system named is L02. The assay is described as follows: Cytotoxicity against human LO2 cells assessed as reduction in cell viability after 48 hrs by MTT assay. The following applies: L02, 48 h. The class given is cell-based.
Assay [3] relates to SMMC-7721. The experiment in a line: Cytotoxicity against human SMMC7721 cells assessed as reduction in cell viability after 48 hrs by MTT assay. The following applies: SMMC-7721, 48 h. Format: functional, cell-based. For orientation: Tetrazolium assays rely on reduction of a dye to a coloured formazan, in cell work by metabolically active cells.

A value given as a limit tells only on which side of the number the result lay.

In general, IC50 refers to the concentration that inhibits the measured activity by half. `COC(=O)[C@]1(C)CCC[C@]2(C)c3cc(Br)c4nc(NCc5cc(C)ccc5O)[nH]c4c3CC[C@@H]12`: the values for the IC50 in assay [1], in assay [2] and in assay [3] were 6.22 µM, 17.3 µM and 0.83 µM, respectively.

In the case of `CCN(CC)c1ccc(CNc2nc3c(Br)cc4c(c3[nH]2)CC[C@H]2[C@](C)(C(=O)OC)CCC[C@]42C)c(O)c1`, the IC50 in assay [1] is 3.38 µM; in assay [2] it was 12.2 µM; in assay [3], 3.76 µM.

Turning to `COC(=O)[C@]1(C)CCC[C@]2(C)c3cc(Br)c4nc(NCc5cc([N+](=O)[O-])ccc5O)[nH]c4c3CC[C@@H]12`, the figures for the IC50 in assay [1], in assay [2] and in assay [3] were 5.52 µM, 18.3 µM and 1.37 µM, respectively.

On to `COC(=O)[C@]1(C)CCC[C@]2(C)c3cc(Br)c4nc(NCc5cccc(F)c5O)[nH]c4c3CC[C@@H]12`, for which the IC50 is 1.65 µM in assay [1], 12.7 µM in assay [2] and 4.27 µM in assay [3].

As for `CCN(CC)c1ccc(/C=N/c2nc3c(Br)cc4c(c3[nH]2)CC[C@H]2[C@](C)(C(=O)OC)CCC[C@]42C)c(O)c1`, the IC50 is 0.16 µM in assay [1], 2.91 µM in assay [2] and 0.87 µM in assay [3].

Consider `COC(=O)[C@]1(C)CCC[C@]2(C)c3cc(Br)c(N)c(N)c3CC[C@@H]12`, for which the IC50 in assay [1], in assay [2] and in assay [3] was above 50 µM throughout.

`COC(=O)[C@]1(C)CCC[C@]2(C)c3cc(Br)c4nc(N)[nH]c4c3CC[C@@H]12`: the IC50 in assay [1] was 15.3 µM; in assay [2] it was above 50 µM; in assay [3], 8.74 µM.

In the case of `COC(=O)[C@]1(C)CCC[C@]2(C)c3cc(Br)c4nc(/N=C/c5ccc(F)cc5O)[nH]c4c3CC[C@@H]12`, the IC50 was 1.24 µM in assay [1], 19 µM in assay [2] and 12.2 µM in assay [3].

For `COC(=O)[C@]1(C)CCC[C@]2(C)c3cc(Br)c4nc(/N=C/c5cc(C)ccc5O)[nH]c4c3CC[C@@H]12`, the IC50 in assay [1] turned out to be 0.12 µM; in assay [2], 3.02 µM; in assay [3] it was 0.56 µM.

For the molecule `COC(=O)[C@]1(C)CCC[C@]2(C)c3cc(Br)c4nc(/N=C/c5cc(Cl)ccc5O)[nH]c4c3CC[C@@H]12`, the IC50 in assay [1] was determined as 1.81 µM; in assay [2], 6.56 µM; in assay [3], 2.2 µM.

Regarding `COC(=O)[C@]1(C)CCC[C@]2(C)c3cc(Br)c4nc(/N=C/c5cc([N+](=O)[O-])ccc5O)[nH]c4c3CC[C@@H]12`, the IC50 in assay [1] was found to be 2.4 µM; in assay [2] it was 8.71 µM; in assay [3] it was 1.28 µM.

For the molecule `COC(=O)[C@]1(C)CCC[C@]2(C)c3cc(Br)c4nc(/N=C/c5ccc6ccccc6c5O)[nH]c4c3CC[C@@H]12`, the IC50 was determined as 1.08 µM in assay [1], 10.8 µM in assay [2] and 2.08 µM in assay [3].

On to `COC(=O)[C@]1(C)CCC[C@]2(C)c3cc(Br)c4nc(/N=C/c5cc(Cl)cc(Cl)c5O)[nH]c4c3CC[C@@H]12`, for which the IC50 in assay [1] amounted to 0.69 µM; in assay [2], 7.21 µM; in assay [3], 1.72 µM.
